Reference: US20260207606A1, “DOSING SCHEDULE OF A SOLID DISPERSION OF A HER2 INHIBITOR” (Boehringer Ingelheim International GmbH, priority 2022, published 2026)

Tests used:
[1] = test system: patients with HER2 mutation positive advanced/metastatic NSCLC; experiment: Phase Ib dose expansion, Cohort 1: safety (treatment related adverse events); assay type: in vivo, human; conditions: 120/240 mg QD, 42 patients
Excerpt: This Example focuses on the dose expansion part (Phase Ib) of the Phase I study described in Example 8. Approximately 275 patients diagnosed with advanced or metastatic refractory NSCLC harbouring mutations in the HER2 gene are enrolled. Patients are divided into 5 cohorts according to the main inclusion criteria listed below.
The trial objectives of Phase Ib include: • For cohort 1, cohort 2, and cohort 5, assess objective tumour response rate by central independent review; • For cohort 3, assess objective tumour response rate by investigator assessment; • For all cohorts, further investigate the safety, tolerability, and PK of the investigated doses of zongertinib in patients with HER2 mutation positive advanced/metastatic NSCLC; • For all cohorts, continue evaluating safety, and patient-reported outcomes.
The main inclusion criteria include: • Patients with a confirmed diagnosis of an advanced, unresectable and/or metastatic non-haematologic malignancy with at least one measurable lesion; • Availability and willingness to provide a sample of archival formalin-fixed paraffin embedded (FFPE) tumour tissue material; • Patients must be willing to comply with the blood sampling and tumour biopsy requirements for PK, PD and biomarker analyses; • For cohort 1: Patients with documented HER2 Tyrosine Kinase Domain (TKD) mutation positive non-squamous NSCLC who had received, in the advanced/metastatic setting, at least one line of systemic therapy that includes a platinum-based combination chemotherapy; • For cohort 2: Patients with documented HER2 Tyrosine Kinase Domain (TKD) mutation positive non-squamous NSCLC who have not received any previous lines of therapy (neo or adjuvant chemo, chemoradio or radiotherapy is permitted if at least 6 months have elapsed prior to disease progression); • For cohort 3: Patients with documented HER2 Non-TKD mutation positive NSCLC, and HER2 TKD mutation positive squamous NSCLC, who had received in the advanced/metastatic setting at least one line of systemic therapy that includes a platinum-based combination chemotherapy; • Patients in these cohorts 1 to 4 must have not received prior therapy with HER2 directed antibody-drug conjugates (ADC); • For cohort 5: Patients with documented HER2 TKD mutation positive non-squamous NSCLC who had received prior therapy with HER2 directed ADC in the advanced/metastatic setting and developed disease progression during or after completing this therapy.
The treatment consists of reiterated cycles of 3 weeks as long as the patient has clinical benefit or until undue drug toxicity or withdrawal of consent, whichever occurs first.

[2] = Phase Ia dose escalation trial: pharmacokinetics, plasma exposure; assay type: in vivo; conditions: increasing doses, BID and QD
Procedure: Pharmacokinetic (PK) profiles of compound (1) are investigated after the first and after repeated doses. Standard PK parameters are calculated, if data allows and if scientifically reasonable. […] Statistical analyses are performed.
If deemed necessary, further PK parameters might be used for these assessments.
Preliminary PK analyses can be performed as necessary for DEC decisions. The final preliminary analysis are performed at the end of the dose escalation part prior to proceeding to the dose expansion part. In contrast to the final PK analysis, the preliminary analyses are based on planned sampling times rather than on actual times; no supplementary patient information, e.g. on AEs or concomitant medication, is used in these analyses, and the outputs are not validated. Minor discrepancies between preliminary and final results may therefore occur.

[3] = test system: PC-9 YVMA xenograft; experiment: Preclinical PK/TGI model for human dose prediction; parameters: species or system mice; conditions: PK/TGI model with predicted human PK parameters
Procedure: This preclinical mathematical model was built with input data from internal in vitro and in vivo data from efficacy experiments in PC-9 YVMA xenograft. Plasma exposure and tumor growth inhibition data from mice were used to train the model. The predicted human PK parameters were used to predict the human plasma profile in the preclinical PK/TGI model. In this setting the PK/TGI model was used to identify the required dose in human necessary to achieve a TGI >100%. This was predicted at 40 mg BID.

C=CC(=O)NC1CCN(c2ncc3ncnc(Nc4ccc(Oc5ccc6c(c5)ncn6C)c(C)c4)c3n2)CC1 [compound (1), N-{1-[8-({3-methyl-4-[(1-methyl-1H-1,3-benzodiazol-5-yl)oxy]phenyl}amino)-[1,3]diazino[5,4-d]pyrimidin-2-yl]piperidin-4-yl}prop-2-enamide]
AEs leading to treatment discontinuation [1]: No AEs led to treatment discontinuation
TRAE diarrhea, all grades [1]: 29%
TRAE diarrhea, grade ≥3 [1]: 0%
TRAE dysgeusia, all grades [1]: 10%
TRAE dysgeusia, grade ≥3 [1]: 0%
TRAE increased aspartate aminotransferase, all grades [1]: 10%
TRAE increased aspartate aminotransferase, grade ≥3 [1]: 2%
TRAE low appetite, all grades [1]: 10%
TRAE low appetite, grade ≥3 [1]: 0%
TRAE rash, all grades [1]: 21%
TRAE rash, grade ≥3 [1]: 0%
Treatment related adverse events (TRAEs), all grades ([1]; Jul. 31, 2023): 67%
Treatment related adverse events (TRAEs), grade ≥3 ([1]; Jul. 31, 2023): 10%
dose proportionality of plasma exposure [2]: no apparent deviation from dose proportional pharmacokinetics
predicted dose in human necessary to achieve a TGI >100% [3]: 40 mg BID
